According to patent US20080027088A1, “Imidazole-Based Hmg-Coa Reductase Inhibitors” (Warner-Lambert Company, LLC, priority 2004, published 2008):

Columns and labels:
[1] = system: ApoE KO mice fed a Western diet; experiment: Atherosclerotic lesion and macrophage area in aortic root and brachiocephalic artery, 12 weeks; type: in vivo
Experimental: For histological analysis, the mice were perfused and fixed in Zinc-Tris fixative. Paraffin embedded sections were stained with Masson's Trichrome. Intimal macrophages were immunohistochemically stained using MAC-2 antibody (clone M3/38 from Cedarlane Laboratories Limited) counterstained with Verhoeff elastic stain. T-lymphocytes were immunohistochemically stained with rat CD3 antibody (clone CD3-12, Serotec). Lesion thickness and area occupied by macrophages were determined using Image Pro Plus software.
FIGS. 11 & 12. Formation of atherosclerotic lesions in aortic root and brachiocephalic artery. ApoE KO mice fed with Western-diet in the absence or presence of myriocin, ApoE KO mice and C57BI/6J mice fed with normal chow were sacrificed and fixed with Zinc-Tris. The cross-section of brachiocephalic artery was stained by Masson's Trichrome and MAC-2 antibody counterstained with Verhoeff elastic stain. Atherosclerotic lesion (black bars) and macrophage size (gray bars) in brachiocephalic artery and in aortic root were quantified by using Image Pro Plus. The values reported are mean±SEM (n=5, *P<0.01, WD vs WD plus myriocin; #P<0.01, normal vs WD plus myriocin). Bar represents 100 μm.

[2] = system: ApoE KO mice fed a Western diet; experiment: Plasma lipoprotein cholesterol distribution by FPLC, 4 weeks; type: in vivo; conditions: doses 0.1-1.0 mg/kg/day
Experimental: Animal experiments—Male C57BI/6J and ApoE KO mice on C57BI/6J background were obtained from the Jackson Laboratory (Bar Harbor, Me.) or Taconic (Germantown, N.Y.) (Plaque formation in ApoE KO mice is lipid-driven (A. S. Plump et al., Cell. 1992;71 (2):343-53)). Myriocin was mixed with Western diet containing 0.21% cholesterol and 21% fat. 8-12-week-old mice received 0.3 mg myriocin/kg/day for 12 weeks (Table 1). 10-12 week-old ApoE KO mice (n=8) were pre-fed a western diet for 2 weeks and mice received various concentrations of myriocin for 4 weeks in diet admix. Control groups consisted of ApoE KO mice fed normal chow or Western diet without myriocin, and normal chow-fed C57BI/6J mice. Body weight and chow feeding was measured every week to examine the food consumption. For the femoral artery cuff model, 8-10 week-old male ApoE KO mice were anethetized and the right femoral artery was dissected from its surroundings. A nonconstrictive polyethylene cuff (Portex, 0.40-mm inner diameter, 0.80-mm outer diameter, and 1.5-mm length) was placed looselyaround the right femoral artery.
Plasma lipids and serum amyloid A measurement—Mice were sacrificed by CO2 inhalation and blood was collected through cardiac puncture. Plasma concentrations of total cholesterol and triglyceride were determined enzymatically on a Cobas Mira Plus auto-analyzer using Cholesterol R1 and Triglycerides Reagent methods, respectively (Roche Diagnostics, Indiana, USA). Colormetric changes were measured at 500 nm. Lipoproteins were separated from mouse plasma by fast-protein liquid chromatography utilizing a Superose 6HR column. Cholesterol distribution among lipoproteins was determined by in-line post column analysis (K. A. Kieft, T. M. Bocan and B. R. Krause, J. Lipid Res. 1991; 32:859-66). Serum Amyloid A (SAA) protein in plasma was measured by ELISA according to the manufacturer's instructions (Biosource).
FIG. 2. […] Cholesterol distribution among lipoproteins was determined by in-line post column analysis (Kieft, K. A., T. M. A. Bocan, B. R. Krause, J. Lipid Res. 1991, 32: 859-866). […]

## CCCCCCC(=O)CCCCCC/C=C/C[C@@H](O)[C@H](O)[C@@](N)(CO)C(=O)O [myriocin]
[1]; 0.3 mg/kg
  decrease in lesion area, brachiocephalic artery: 76%
  decrease in macrophage area, brachiocephalic artery: 74%
  lesion area decreased, aortic root: 44%
  macrophage area decreased, aortic root: 31%
[1]; myriocin-treated, Western diet-fed ApoE KO mice
  necrotic core in lesions: did not develop necrotic core
[2]
  HDL-cholesterol raised: 2.1 fold
  LDL-cholesterol lowered, at maximum: 63%
  VLDL-cholesterol lowered, at maximum: 83%
